The values below come from article PMC8550792, “Evolution of kinase polypharmacology across HSP90 drug discovery” (Cell Chemical Biology, 2021).

Where two headings read alike, the source gives them in different places.

Common to all, as to assay: biochemical
What all share (format): biochemical

Assay [1] deals with T1, 382 unique human kinases (Homo sapiens, UniProt Q12852).
T1 sequence (Q12852 1-859): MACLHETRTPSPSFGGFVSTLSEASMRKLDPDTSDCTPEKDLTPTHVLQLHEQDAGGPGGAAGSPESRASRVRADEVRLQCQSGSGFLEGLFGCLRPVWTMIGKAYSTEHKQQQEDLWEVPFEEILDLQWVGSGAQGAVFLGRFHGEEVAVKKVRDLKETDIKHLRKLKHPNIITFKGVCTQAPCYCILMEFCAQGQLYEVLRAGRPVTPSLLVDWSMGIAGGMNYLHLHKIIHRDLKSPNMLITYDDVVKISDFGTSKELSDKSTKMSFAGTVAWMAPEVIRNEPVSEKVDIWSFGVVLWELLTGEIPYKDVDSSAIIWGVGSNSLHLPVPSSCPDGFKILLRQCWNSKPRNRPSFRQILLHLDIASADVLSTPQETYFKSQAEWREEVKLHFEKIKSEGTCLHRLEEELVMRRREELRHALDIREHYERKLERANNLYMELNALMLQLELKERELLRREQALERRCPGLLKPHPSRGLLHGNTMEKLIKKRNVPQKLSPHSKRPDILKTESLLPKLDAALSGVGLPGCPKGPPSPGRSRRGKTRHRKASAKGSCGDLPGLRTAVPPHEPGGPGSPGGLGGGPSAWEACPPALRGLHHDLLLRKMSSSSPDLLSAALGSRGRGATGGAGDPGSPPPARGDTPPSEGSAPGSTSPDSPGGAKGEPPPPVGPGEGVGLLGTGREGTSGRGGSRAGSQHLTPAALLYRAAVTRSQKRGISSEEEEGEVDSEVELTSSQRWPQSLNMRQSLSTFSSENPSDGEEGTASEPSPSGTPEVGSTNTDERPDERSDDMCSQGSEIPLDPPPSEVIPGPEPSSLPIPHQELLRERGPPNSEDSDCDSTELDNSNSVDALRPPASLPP
The conditions noted are these: kinase DLK/MAP3K12, compound 10 uM; for remaining activity at 10 µM: read-out: % Enzyme Activity (relative to DMSO controls).

Assay [2] addresses T2, 382 unique human kinases (Homo sapiens, UniProt Q76MJ5).
T2 construct: purchased Reaction Biology (HotSpot contract assay)
The conditions noted are these: ERN2/IRE2, 10 uM; for remaining activity at 10 µM: read-out: % Enzyme Activity (relative to DMSO controls).

Assay [3] has as its target T3, 382 unique human kinases (Homo sapiens, UniProt Q12851).
T3 construct: purchased Reaction Biology (HotSpot contract assay)
T3 sequence (Q12851 1-820): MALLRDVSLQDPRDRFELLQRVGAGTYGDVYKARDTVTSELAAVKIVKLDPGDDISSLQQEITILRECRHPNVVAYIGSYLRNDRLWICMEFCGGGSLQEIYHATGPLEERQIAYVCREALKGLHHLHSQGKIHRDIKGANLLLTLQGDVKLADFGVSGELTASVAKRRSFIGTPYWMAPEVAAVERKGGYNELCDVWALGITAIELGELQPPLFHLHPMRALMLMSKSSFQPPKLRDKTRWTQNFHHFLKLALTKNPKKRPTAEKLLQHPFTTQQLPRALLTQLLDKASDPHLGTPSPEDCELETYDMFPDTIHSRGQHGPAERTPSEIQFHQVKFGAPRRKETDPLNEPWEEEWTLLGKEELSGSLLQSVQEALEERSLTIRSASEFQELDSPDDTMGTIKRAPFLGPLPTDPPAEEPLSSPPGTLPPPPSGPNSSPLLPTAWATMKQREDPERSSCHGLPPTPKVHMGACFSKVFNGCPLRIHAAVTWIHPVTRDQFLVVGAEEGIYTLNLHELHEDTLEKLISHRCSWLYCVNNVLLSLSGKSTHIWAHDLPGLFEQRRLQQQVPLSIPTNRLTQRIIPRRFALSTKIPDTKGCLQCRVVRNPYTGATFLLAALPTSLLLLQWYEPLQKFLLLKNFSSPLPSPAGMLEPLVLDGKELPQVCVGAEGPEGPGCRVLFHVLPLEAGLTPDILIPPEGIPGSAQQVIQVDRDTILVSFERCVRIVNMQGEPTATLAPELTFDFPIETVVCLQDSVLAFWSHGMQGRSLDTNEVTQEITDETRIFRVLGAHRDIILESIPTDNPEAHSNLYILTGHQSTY
The conditions noted are these: GCK/MAP4K2, 10 uM; for remaining activity at 10 µM: read-out: % Enzyme Activity (relative to DMSO controls).

The target in assay [4] is T4, 382 unique human kinases (Homo sapiens, UniProt Q13233).
T4 construct: purchased Reaction Biology (HotSpot contract assay)
The conditions noted are these: kinase MEKK1, compound 10 uM; for remaining activity at 10 µM: read-out: % Enzyme Activity (relative to DMSO controls).

Assay [5] has as its target T5, 382 unique human kinases (Homo sapiens, UniProt P51817).
T5 construct: purchased Reaction Biology (HotSpot contract assay)
T5 sequence (P51817 1-358): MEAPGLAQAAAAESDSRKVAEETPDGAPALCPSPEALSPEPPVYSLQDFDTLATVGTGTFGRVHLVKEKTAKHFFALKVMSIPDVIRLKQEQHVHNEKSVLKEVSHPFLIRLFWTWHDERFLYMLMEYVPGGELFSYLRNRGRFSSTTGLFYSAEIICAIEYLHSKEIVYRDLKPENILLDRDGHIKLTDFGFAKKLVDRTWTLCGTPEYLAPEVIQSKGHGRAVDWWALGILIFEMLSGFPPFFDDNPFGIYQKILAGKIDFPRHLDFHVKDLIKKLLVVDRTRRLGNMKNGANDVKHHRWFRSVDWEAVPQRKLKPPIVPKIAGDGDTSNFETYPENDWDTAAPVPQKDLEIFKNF
Conditions: PRKX, compound at 10 uM, duplicate values; for remaining activity at 10 µM: read-out: % Enzyme Activity (relative to DMSO controls).

The target in assay [6] is T6, 382 unique human kinases (Homo sapiens, UniProt P06493).
T6 construct: purchased Reaction Biology (HotSpot contract assay)
Conditions: for remaining activity at 10 µM: read-out: % Enzyme Activity (relative to DMSO controls).

Assay [7] has as its target T7, 382 unique human kinases (Homo sapiens, UniProt P49760).
T7 construct: purchased Reaction Biology (HotSpot contract assay)
Conditions: CLK2, 10 uM; for remaining activity at 10 µM: read-out: % Enzyme Activity (relative to DMSO controls).

The target of assay [8] is T8, 382 unique human kinases (Homo sapiens, UniProt Q9BQI3).
T8 construct: purchased Reaction Biology (HotSpot contract assay)
The conditions noted are these: EIF2AK1, compound at 10 uM, duplicate values; for remaining activity at 10 µM: read-out: % Enzyme Activity (relative to DMSO controls).

Assay [9] deals with T9, 382 unique human kinases (Homo sapiens, UniProt P29597).
T9 construct: purchased Reaction Biology (HotSpot contract assay)
Conditions: TYK2, [ATP] 15 µM, compound 10 uM; for remaining activity at 10 µM: read-out: % Enzyme Activity (relative to DMSO controls).

Assay [10] addresses T10, 382 unique human kinases (Homo sapiens, UniProt P07333).
T10 construct: purchased Reaction Biology (HotSpot contract assay)
The conditions noted are these: FMS, [ATP] 100 µM, compound 10 uM; for remaining activity at 10 µM: read-out: % Enzyme Activity (relative to DMSO controls).

For assay [11], the target named is T11, 382 unique human kinases (Homo sapiens, UniProt Q5S007, I2020T).
T11 construct: purchased Reaction Biology (HotSpot contract assay)
Conditions: LRRK2 (I2020T), [ATP] 10 µM, compound 10 uM; for remaining activity at 10 µM: read-out: % Enzyme Activity (relative to DMSO controls).

The mark [12] stands for this setting: kinase CDK1/cyclin A, compound 10 uM.
Setting [13] is: kinase CDK1/cyclin E, compound 10 uM.

T4 sequence (Q13233 whole entry): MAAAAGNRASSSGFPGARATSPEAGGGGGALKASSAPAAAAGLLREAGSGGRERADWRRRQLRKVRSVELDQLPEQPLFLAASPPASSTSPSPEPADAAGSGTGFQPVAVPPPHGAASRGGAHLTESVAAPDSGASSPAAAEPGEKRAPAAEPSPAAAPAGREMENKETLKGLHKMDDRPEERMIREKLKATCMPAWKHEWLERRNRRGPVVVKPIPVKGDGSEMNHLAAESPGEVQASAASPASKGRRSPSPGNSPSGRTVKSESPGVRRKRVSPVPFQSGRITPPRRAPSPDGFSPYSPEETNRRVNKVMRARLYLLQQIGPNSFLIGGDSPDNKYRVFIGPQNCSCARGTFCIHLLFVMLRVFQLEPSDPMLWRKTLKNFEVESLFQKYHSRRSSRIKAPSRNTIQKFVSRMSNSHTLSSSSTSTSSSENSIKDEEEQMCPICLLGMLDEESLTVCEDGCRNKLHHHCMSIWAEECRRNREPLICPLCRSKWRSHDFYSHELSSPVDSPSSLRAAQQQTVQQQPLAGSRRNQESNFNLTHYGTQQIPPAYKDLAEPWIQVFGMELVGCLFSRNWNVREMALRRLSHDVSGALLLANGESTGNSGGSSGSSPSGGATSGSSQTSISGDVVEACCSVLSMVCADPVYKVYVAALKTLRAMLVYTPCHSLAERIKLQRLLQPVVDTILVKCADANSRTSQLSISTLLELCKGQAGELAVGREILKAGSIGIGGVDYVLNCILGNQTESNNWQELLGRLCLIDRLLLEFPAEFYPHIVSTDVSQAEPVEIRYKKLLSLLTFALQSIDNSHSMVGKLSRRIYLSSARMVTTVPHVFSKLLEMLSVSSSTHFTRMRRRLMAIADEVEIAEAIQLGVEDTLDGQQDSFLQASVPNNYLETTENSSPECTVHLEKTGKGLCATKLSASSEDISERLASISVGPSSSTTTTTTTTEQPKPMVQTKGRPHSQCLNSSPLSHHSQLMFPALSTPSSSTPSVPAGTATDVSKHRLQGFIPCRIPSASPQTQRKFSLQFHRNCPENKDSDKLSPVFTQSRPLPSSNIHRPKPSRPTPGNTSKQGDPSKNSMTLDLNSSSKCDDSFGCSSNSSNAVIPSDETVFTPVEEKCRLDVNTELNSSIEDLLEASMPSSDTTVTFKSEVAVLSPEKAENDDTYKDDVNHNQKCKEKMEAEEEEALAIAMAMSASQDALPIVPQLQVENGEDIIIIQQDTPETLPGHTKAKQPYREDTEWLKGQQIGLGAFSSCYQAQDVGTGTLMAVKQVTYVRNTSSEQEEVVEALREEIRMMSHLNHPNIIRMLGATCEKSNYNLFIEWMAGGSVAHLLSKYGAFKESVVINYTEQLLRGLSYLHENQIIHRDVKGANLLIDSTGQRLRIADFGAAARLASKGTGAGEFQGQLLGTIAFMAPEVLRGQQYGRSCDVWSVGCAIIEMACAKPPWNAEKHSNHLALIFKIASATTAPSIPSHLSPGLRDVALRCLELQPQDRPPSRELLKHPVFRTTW
T7 sequence (P49760 whole entry): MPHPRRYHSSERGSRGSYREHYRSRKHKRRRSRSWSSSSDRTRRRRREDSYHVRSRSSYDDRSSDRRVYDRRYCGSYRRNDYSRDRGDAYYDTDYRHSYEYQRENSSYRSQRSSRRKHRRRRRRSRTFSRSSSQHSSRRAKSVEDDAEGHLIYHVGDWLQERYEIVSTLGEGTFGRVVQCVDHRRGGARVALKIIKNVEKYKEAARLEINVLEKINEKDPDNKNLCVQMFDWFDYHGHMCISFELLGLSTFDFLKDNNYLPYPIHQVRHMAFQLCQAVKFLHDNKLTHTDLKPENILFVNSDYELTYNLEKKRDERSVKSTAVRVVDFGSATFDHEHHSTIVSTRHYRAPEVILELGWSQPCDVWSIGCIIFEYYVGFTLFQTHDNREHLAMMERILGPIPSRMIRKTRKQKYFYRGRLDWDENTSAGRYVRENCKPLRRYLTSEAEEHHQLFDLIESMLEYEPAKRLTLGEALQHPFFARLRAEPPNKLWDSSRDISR
T6 sequence (P06493 whole entry): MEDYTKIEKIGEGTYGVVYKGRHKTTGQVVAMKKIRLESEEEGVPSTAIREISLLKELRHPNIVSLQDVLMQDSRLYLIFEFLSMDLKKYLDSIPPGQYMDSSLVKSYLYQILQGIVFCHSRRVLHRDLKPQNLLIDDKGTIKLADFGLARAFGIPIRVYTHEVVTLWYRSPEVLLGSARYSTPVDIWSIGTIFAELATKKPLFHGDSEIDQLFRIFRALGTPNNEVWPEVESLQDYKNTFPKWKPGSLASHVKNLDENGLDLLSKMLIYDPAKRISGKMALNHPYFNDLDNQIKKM
T2 sequence (Q76MJ5 35-926): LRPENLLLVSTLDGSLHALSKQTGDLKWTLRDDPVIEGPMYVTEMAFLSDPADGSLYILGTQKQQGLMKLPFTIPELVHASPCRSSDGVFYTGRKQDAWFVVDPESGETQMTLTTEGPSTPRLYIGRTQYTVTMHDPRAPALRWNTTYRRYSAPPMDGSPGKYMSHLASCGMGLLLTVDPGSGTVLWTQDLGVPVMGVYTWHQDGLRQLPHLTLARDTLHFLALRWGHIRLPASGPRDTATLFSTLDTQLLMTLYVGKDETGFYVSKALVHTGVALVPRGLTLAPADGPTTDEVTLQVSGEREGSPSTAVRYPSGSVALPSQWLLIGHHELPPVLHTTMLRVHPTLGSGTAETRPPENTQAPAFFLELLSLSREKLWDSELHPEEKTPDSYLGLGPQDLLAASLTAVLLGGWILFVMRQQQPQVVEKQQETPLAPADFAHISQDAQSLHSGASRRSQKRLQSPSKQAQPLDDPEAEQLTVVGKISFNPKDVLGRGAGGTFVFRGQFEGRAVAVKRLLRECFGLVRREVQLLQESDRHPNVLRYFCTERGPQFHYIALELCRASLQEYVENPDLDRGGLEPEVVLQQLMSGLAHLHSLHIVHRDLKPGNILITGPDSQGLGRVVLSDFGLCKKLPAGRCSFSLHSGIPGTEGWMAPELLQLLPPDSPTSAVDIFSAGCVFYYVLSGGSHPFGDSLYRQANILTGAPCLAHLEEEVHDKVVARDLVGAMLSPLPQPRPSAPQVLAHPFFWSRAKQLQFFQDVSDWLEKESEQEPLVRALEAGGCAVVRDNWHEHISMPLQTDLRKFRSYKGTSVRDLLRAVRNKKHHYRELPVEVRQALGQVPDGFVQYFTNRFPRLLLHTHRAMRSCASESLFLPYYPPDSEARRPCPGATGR
T8 sequence (Q9BQI3 whole entry): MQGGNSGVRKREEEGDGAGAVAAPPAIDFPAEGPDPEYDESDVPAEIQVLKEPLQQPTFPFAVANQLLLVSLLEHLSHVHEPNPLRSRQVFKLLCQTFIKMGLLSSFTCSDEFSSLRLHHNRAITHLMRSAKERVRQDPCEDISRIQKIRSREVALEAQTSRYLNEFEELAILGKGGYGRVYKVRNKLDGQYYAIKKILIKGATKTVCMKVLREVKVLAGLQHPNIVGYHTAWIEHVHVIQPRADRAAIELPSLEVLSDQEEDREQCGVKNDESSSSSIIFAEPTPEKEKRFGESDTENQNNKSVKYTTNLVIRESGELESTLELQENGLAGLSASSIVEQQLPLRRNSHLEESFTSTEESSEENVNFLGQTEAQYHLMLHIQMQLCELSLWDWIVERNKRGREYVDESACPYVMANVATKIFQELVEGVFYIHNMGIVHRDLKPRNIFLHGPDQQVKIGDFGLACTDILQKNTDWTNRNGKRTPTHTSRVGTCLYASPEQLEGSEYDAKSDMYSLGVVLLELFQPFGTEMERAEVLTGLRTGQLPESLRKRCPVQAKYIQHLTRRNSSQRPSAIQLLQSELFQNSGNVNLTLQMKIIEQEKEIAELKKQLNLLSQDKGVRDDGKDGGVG
T10 sequence (P07333 20-972): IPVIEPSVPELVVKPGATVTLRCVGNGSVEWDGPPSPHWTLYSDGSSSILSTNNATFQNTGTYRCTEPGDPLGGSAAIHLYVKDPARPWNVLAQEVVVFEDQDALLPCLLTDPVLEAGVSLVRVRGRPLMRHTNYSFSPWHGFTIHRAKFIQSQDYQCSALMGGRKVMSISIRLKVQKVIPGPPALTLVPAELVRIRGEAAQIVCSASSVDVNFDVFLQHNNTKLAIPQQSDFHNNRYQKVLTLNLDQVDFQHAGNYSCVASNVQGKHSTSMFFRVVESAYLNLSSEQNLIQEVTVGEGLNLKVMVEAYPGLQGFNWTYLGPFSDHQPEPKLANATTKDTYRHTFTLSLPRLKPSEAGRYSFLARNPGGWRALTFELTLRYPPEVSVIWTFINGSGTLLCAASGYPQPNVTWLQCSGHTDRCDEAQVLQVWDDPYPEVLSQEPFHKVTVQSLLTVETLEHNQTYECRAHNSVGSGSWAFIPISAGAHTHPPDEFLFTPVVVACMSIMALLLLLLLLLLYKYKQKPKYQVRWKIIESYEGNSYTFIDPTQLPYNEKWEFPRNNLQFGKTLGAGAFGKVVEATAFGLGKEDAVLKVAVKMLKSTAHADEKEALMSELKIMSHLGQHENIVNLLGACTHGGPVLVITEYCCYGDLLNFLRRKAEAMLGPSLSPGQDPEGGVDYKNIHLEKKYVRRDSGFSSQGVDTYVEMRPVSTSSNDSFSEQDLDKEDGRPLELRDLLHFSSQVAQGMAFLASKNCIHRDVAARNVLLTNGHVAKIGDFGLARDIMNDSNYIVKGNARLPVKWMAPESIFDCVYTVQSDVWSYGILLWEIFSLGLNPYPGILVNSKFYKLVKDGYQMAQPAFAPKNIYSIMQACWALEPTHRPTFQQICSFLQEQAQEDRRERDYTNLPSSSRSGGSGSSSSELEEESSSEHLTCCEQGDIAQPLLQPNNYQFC

`CC(C)c1cc(-c2n[nH]c(=O)n2-c2ccc3c(ccn3C)c2)c(O)cc1O` [Ganetespib (STA9090)]: the remaining activity at 10 µM in assay [1] is 84.7%; in assay [2], 66.7%; in assay [3], 76%; in assay [4] it was 98.3%; in assay [5] it was 108%; in assay [6] (CDK1/cyclin B, 10 uM), 78.5%. Further, the remaining activity at 10 µM in assay [6] (setting [12]) was 83.4%; in [6] (setting [13]), 81.7%; in assay [7], 67.1%; in [8], 110%.

With `CC(C)c1cc(-c2n[nH]c(=O)n2-c2ccc3c(ccn3C)c2)c(O)cc1O` [Ganetespib], the remaining activity at 10 µM in assay [9] came out at 62.6%; in [10] it was 23.5%; in assay [11], 39%.

For the compound `CCNC(=O)c1noc(-c2cc(C(C)C)c(O)cc2O)c1-c1ccc(CN2CCOCC2)cc1` [Luminespib (AUY-922)], the “% Enzyme Activity (relative to DMSO controls)” value in assay [1] is listed as 120.31%; in [2] it was 105.69%; in assay [3], 94.14%; in [4], 83.59%; in assay [5], 112.11%; in assay [6] (CDK1/cyclin B, 10 uM) it was 86.64%. Moreover, the “% Enzyme Activity (relative to DMSO controls)” value in assay [6] (setting [12]) is on record as 96.86%; in assay [6] (setting [13]) it was 108.79%; in assay [7], 80.06%; in [8] it was 122.69%. Also, the remaining activity at 10 µM in assay [1] came to 122%; in assay [2], 108%; in [3] it was 97.2%; in [4], 85.5%; in assay [5] it was 112%; in [6] (CDK1/cyclin B, 10 uM) it was 86.8%. Moreover, the remaining activity at 10 µM in [6] (setting [12]) was 97.5%; in [6] (setting [13]) it was 113%; in assay [7], 80.2%; in assay [8], 127%.

Regarding `CCNC(=O)c1noc(-c2cc(C(C)C)c(O)cc2O)c1-c1ccc(CN2CCOCC2)cc1` [Luminespib], the “% Enzyme Activity (relative to DMSO controls)” value came out at 101.11% in [9], 26.15% in assay [10] and 86.48% in assay [11]. The remaining activity at 10 µM was 102% in assay [9], 26.4% in assay [10] and 86.5% in assay [11].
